# Results: patent publication US20220288058A1, “COMBINATION THERAPY USING A MALT1 INHIBITOR AND A BTK INHIBITOR” (Janssen Pharmaceutica NV, priority 2021, published 2022)
# “Also recorded” adds a separate entry of the source.
# Key:
# OCI-Ly10 = assay: Inhibition of DLBCL cancer cell proliferation (CellTiter-Glo), Compound A and Compound B mono and combination; format: cell-based, human; conditions: monotherapy, highest concentration tested, 4 days
# Experimental: Compound A and Compound B were used throughout the in vitro and cellular assessment of activity. All small molecules were prepared as 100% dimethyl sulfoxide (DMSO) stocks as indicated. A final concentration of 0.25% DMSO was used as a control. High Control=Cells+DMSO 0.25%.
# A panel of 4 B-cell lymphoma lines was treated with different doses of both compounds. The following ABC-DLBCL cell lines were tested: OCI-Ly10; TMD8; OCI-Ly3; and HBL1. The cell lines were grown in 96-well plates and treated with a matrix of seven scalar concentrations of Compound A ([…]) and six scalar concentrations of Compound B ([…]) and all combinations thereof. This checkerboard design was repeated on up to four separate plates. The final concentration of DMSO was 0.25%. After an incubation of four days at 37° C. and 5% CO2, cell viability was determined by adding CellTiter-Glo®. Luminescence was read on an Envision device and readouts were used to calculate potential combination effects.
# For the assessment of combination effects on DLBCL or MCL cancer cell proliferation, the observed combination effects were evaluated using the public available BIGL (Biochemically Intuitive Generalized Loewe Model) R package which measures the evidence in the data, in the presence of variability, against certain null models derived from the monotherapies. […]
# [1] = tested on: OCI-LY10 human DLBCL xenografts; assay: Study 2: Compound B monotherapy efficacy, OCI-LY10 xenografts in NSG mice; format: in vivo, mouse; conditions: for TGI / ΔTGI: Study 2, Day 45; for animals succumbed to disease burden / animals removed from the study due to tumor progression: Study 2; for animals succumbed to disease burden: by 17 days into the 21-day treatment; for animals removed from the study due to tumor progression: by 21 days of treatment
# Experimental: In efficacy study, Study 2, NSG female animals were injected SC into the right find flank with 5×10^6 OCI-LY10 cells in PBS containing 50% Matrigel™. On day 32, mice were randomized based on tumor volume (mean tumor volume of 207 mm^3) and treated orally once or twice daily with BTK inhibitor Compound B according to treatment schedule above (see Table 4) for 21 days. After the last dose on Day 53, blood was collected serially via submandibular vein sampling from 5 animals per time point per treatment group at 2, 4, 12, and 24 hours after dosing. Blood was collected in EDTA and plasma was obtained via centrifugation at 3000 rpm for 10 minutes. Samples were snap frozen and stored at […] for possible future analyses.
# Tumor volume in SC models was calculated using the formula: tumor volume (mm^3)=(D×d^2/2); where “D” represents the larger diameter and “d” the smaller diameter of the tumor as determined by calliper measurements. Tumor volume data was graphed as the mean tumor volume f SEM.
# The percent ΔTGI was defined as the difference between mean tumor burden of the treatment and control groups, calculated using the following formula: ([(TVc−TVc0)−(TVt−TVt0)]/(TVc−TVc0))×100, where “TVc” is the mean tumor burden of a given control group, “TVc0” is the mean initial tumor burden of a given control group, “TVt” is the mean tumor burden of the treatment group, and “TVt0” is the mean initial tumor burden of the treatment group. The percent tumor growth inhibition (TGI) was defined as the difference between mean tumor volumes of the treated and control groups, calculated as: ((TVc−TVt)/TVc)×100 where “TVc” is the mean tumor volume of the control group and “TVt” is the mean tumor volume of the treatment group. […] Johnson et al., Br J Cancer. 2001; 84(10):1424-1431.
# [2] = Body weight and tolerability monitoring of OCI-LY10 tumor bearing NSG mice (Studies 2-4); format: in vivo
# Experimental: Subsequently animal body weight and tumor volume was monitored two to three times per week. Animals were monitored daily for clinical signs related to either compound toxicity or tumor burden (i.e., hind limb paralysis, lethargy, dyspnea, etc.).
# Body weight changes of individual mice were calculated using the formula: ([W−W0]/W0)×100, where “W” represents mean body weight on a particular day, and “W0” represents body weight at initiation of treatment. Body weight was graphed as mean body weight change±SEM.
# NHL and CLL = assay: Clinical trial of Compound B monotherapy in the same patient population; format: in vivo, human
# Experimental: Another clinical trial is being conducted in the same patient population, in which Compound B is administered as a monotherapy. […] Two patients (1 MCL, 1 CLL) achieved PR soon after dose escalation to 280 mg BID at Cycles 7 and 9, respectively. […] Therefore, the response seen in CLL/SLL patients in the combinational study is unlikely to attribute to either Compound A or Compound B alone.
smiles,measurement,setting,value
"C=CC(=O)N[C@H]1CCC[C@H]1NC(=O)c1sc2nccc3c2c1NC(=O)N3c1cnc(CC(C)C)cc1C (atropisomer, axis not shown) [Compound B, N-((1R,2S)-2-acrylamidocyclopentyl)-5-(S)-(6-isobutyl-4-methylpyridin-3-yl)-4-oxo-4,5-dihydro-3H-1-thia-3,5,8-triazaacenaphthylene-2-carboxamide]",proliferation inhibition,OCI-Ly10,up to 75%
same,TGI,[1]; Compound B 5 mg/kg BID po,26%
same,ΔTGI,[1]; Compound B 5 mg/kg BID po,34%
same,TGI,[1]; Compound B 10 mg/kg QD po,24%
same,ΔTGI,[1]; Compound B 10 mg/kg QD po,30%
same,TGI,[1]; Compound B 30 mg/kg QD po,35%
same,ΔTGI,[1]; Compound B 30 mg/kg QD po,45%
same,TGI,[1]; Compound B 50 mg/kg BID po,78%
same,ΔTGI,[1]; Compound B 50 mg/kg BID po,102%
same,animals succumbed to disease burden,[1]; Compound B 10 mg/kg QD,two animals
same,animals succumbed to disease burden,[1]; Compound B 100 mg/kg QD,a mouse
same,animals removed from the study due to tumor progression,[1]; Compound B 5 mg/kg BID,4/10
same,animals removed from the study due to tumor progression,[1]; Compound B 10 mg/kg QD,7/10
same,animals removed from the study due to tumor progression,[1]; Compound B 15 mg/kg BID,1/10
same,animals removed from the study due to tumor progression,[1]; Compound B 30 mg/kg QD,2/10
same,animals removed from the study due to tumor progression,[1]; Compound B 100 mg/kg QD,3/10
same,body weight,"[2]; Study 2, 3 weeks of treatment",no body weight loss was observed
same,animals found dead or taken off study due to negative clinical signs,"[2]; Study 3, Compound B 30 mg/kg QD",one animal
same,body weight loss during the 3 weeks of treatment,"[2]; Study 3 and Study 4, similar frequencies in vehicle group","low level, transient body weight loss; also recorded: low level, transient, body weight loss"
same,animals removed due to reaching the maximum allowed body weight loss of 20%,"[2]; Study 4, Compound B 15 mg/kg",one each
same,animals died during the study,"[2]; Study 4, Compound B 50 mg/kg",one animal
same,tolerability in NSG mice,"[2]; all dose levels tested, up to 50 mg/kg BID or 100 mg/kg QD",well tolerated
same,patients with PR or CR,"NHL and CLL; Compound B monotherapy 140 mg QD and 140 mg BID, 7 treated patients",none of the 7 treated patients had PR or CR
same,patients achieving PR,"NHL and CLL; Compound B monotherapy after dose escalation to 280 mg BID, Cycles 7 and 9 (1 MCL, 1 CLL)",Two patients
